The record followed here is patent US8889903B2, “Synthesis of rare earth metal extractant” (Shin-Etsu Chemical Co., Ltd., priority 2010, dated 2014).

Structures are written as SMILES. In brackets after ≈: the same amount, converted by molar mass.

The nature of this data set: Solubility in water. Type of data set: physicochemical. The method, then: If B/A<1.0, which means an excess of diglycolic anhydride for reaction, the desired dialkyl diglycol amic acid is obtained as the reaction product, in which unreacted diglycolic acid may remain. When solvent extraction is carried out using dialkyl diglycol amic acid having diglycolic acid left therein, no satisfactory separation ability is available and the solution becomes white turbid because clad is formed between organic phase and aqueous phase. […] This is because the diglycolic acid remaining along with the metal extractant, dialkyl diglycol amic acid forms a complex with a rare earth metal ion, inhibiting satisfactory extraction and separation. That is, diglycolic acid becomes an inhibitory factor to extraction. To obtain diglycolic acid-free dialkyl diglycol amic acid as the rare earth metal extractant capable of normal extraction and separation, the step of removing unreacted diglycolic acid is necessary as in the prior art method. Specifically, the water-soluble diglycolic acid must be removed by removing the synthesis medium and washing the reaction product with water. […] In order to use the dialkyl diglycol amic acid in crystallized form as the rare earth metal extractant, filtration and drying steps are needed. The process becomes less efficient because extra steps are necessary as compared with the range of 1.0≦B/A≦1.2.

`CCCCCCCCN(CCCCCCCC)C(=O)COCC(=O)O` [DODGAA, N,N-dioctyl-3-oxapentane-1,5-amic acid] yielded a solubility in water of 6.2 µM (≈ 2.22 µg/mL).
